Measurements from US8563730B2, “Pyrazole and fused pyrazole glucokinase activators” (Takeda San Diego, Inc., priority 2008, dated 2013).
Structures can show the parent of a compound that is named as a salt. Where two headings read alike, the source gives them in different places.

Target: T1, GK (glucokinase, residues 12-465) (Homo sapiens, UniProt P35557)
T1 construct: I.D. No. 1 corresponds to residues 12-465 of glucokinase; made in house; host or cells: DH10b-T1r E. coli
T1 sequence (P35557 with tags, fused parts or gaps isoform P35557-2): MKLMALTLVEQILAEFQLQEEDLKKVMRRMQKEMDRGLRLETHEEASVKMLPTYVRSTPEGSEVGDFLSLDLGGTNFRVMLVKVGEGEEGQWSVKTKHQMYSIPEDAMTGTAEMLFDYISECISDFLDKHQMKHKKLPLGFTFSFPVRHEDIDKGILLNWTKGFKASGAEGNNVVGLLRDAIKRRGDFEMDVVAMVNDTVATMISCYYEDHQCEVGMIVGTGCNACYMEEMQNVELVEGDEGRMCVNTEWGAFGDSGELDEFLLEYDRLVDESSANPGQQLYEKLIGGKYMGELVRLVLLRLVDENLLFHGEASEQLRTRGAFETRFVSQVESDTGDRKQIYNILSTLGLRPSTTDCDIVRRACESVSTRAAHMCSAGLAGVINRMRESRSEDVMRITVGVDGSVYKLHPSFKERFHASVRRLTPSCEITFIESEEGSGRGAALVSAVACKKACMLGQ
Assay: enzymatic glucokinase activity assay (ATP consumption, KinaseGlo luminescence)
Format: biochemical
Settings: 5 μM ATP, 5 mM Glucose, reported as bins; for EC50: read-out: pKact
From the text: The activity of compounds as glucokinase activators may be assayed in vitro, in vivo or in a cell line. Provided below is an enzymatic glucokinase activity assay.
Purified glucokinase may be obtained as follows. […] SEQ.
The expression of recombinant glucokinase protein may be carried out by transformation and growth of DH10b-T1r E. coli cells incorporating the (pFLAG-CTC) plasmid in LB media. Protein expression can be induced in this system by the addition of IPTG to the culture medium.
Recombinant protein may be isolated from cellular extracts by passage over Sepharose Q Fast Flow resin (Pharmacia). This partially purified GK extract may then be further purified by a second passage over Poros HQ10 (Applied Biosystems). The purity of GK may be determined on denaturing SDS-PAGE gel. Purified GK may then be concentrated to a final concentration of 20.0 mg/ml. After flash freezing in liquid nitrogen, the proteins can be stored at −78° C. in a buffer containing 25 mM TRIS-HCl pH 7.6, 50 mM NaCl, and 0.5 mM TCEP.
The activation properties of compounds for GK may be determined using a black 384-well-plate format under the following reaction conditions: 25 mM Hepes pH 7.2, 25 mM NaCl, 10 mM MgCl2, 0.01% Brij35, 1 mM DTT, 5 μM ATP, 5 mM Glucose 2% DMSO. The amount of ATP consumed may be determined quantitatively by addition of equal volume of luciferase reagent (luciferase+beetle luciferin—KinaseGlo Luminescent Kinase Assay kit from Promega). The luminescence intensity may be measured by using the Analyst HT from LJL Biosystems.
The reaction mixture may then be incubated at room temperature for 60 min, and quenched and developed by addition of 10 μL of luciferase reagent. Luminescence intensities of the resulting reaction mixtures may be measured after a 10 min incubation at room temperature. The luminescence intensity may be measured by using the Analyst HT from LJL Biosystems.
pKact and % ACTmax values may be calculated by non-linear curve fitting of the compound concentrations and luminescence intensities to a standard inhibition/activation equation.

[1] = Kact = concentration that displays 50% of the maximal increase in GK activity, 60 min, room temperature
[2] = calculated maximal gain in GK enzyme activity at a saturating concentration of the compound, read-out: % ACTmax
[3] = read-out: % ACTmax, calculated maximal gain in GK enzyme activity at a saturating concentration of the compound
[4] = calculated maximal gain in GK enzyme activity at a saturating concentration of the compound

| Structure (SMILES) | EC50 [1] | Emax [2] | Emax [3] | % ACTmax [4] | pKact [1] |
| --- | --- | --- | --- | --- | --- |
| O=C(Nc1ncc(Cl)s1)C(CC1CCOCC1)n1ncc2cc(S(=O)(=O)C3CC3)ccc21 (racemic) [Compound 10, N-(5-chlorothiazol-2-yl)-2-(5-(cyclopropylsulfonyl)-1H-indazol-1-yl)-3-(tetrahydro-2H-pyran-4-yl)propanamide] | 1.58 to 3.16 µM | ≥ 111% |  |  |  |
| COc1ccc2c(cnn2C(CC2CCOCC2)C(=O)Nc2ccn(C)n2)c1S(=O)(=O)C1CC1 (racemic) [Compound 15, 2-(4-(cyclopropylsulfonyl)-5-methoxy-1H-indazol-1-yl)-N-(1-methyl-1H-pyrazol-3-yl)-3-(tetrahydro-2H-pyran-4-yl)propanamide] | 0.398 to 1.26 µM | 90 to 100% |  |  |  |
| O=C(Nc1ncc(F)s1)[C@@H](CC1CCOCC1)n1cc(S(=O)(=O)C2CCCC2)cn1 (single isomer, unassigned) [Compound 37, 2-(4-(cyclopentylsulfonyl)-1H-pyrazol-1-yl)-N-(5-fluorothiazol-2-yl)-3-(tetrahydro-2H-pyran-4-yl)propanamide] | 1.58 to 3.16 µM | ≥ 111% |  |  |  |
| O=C(Nc1cnccn1)C(CC1CCOCC1)n1ncc2c(S(=O)(=O)C3CC3)cncc21 (centres unmarked) [20 (Free Base), 2-(4-(cyclopropylsulfonyl)-1H-pyrazolo[3,4-c]pyridin-1-yl)-N-(pyrazin-2-yl)-3-(tetrahydro-2H-pyran-4-yl)propanamide] | 0.398 to 1.26 µM |  | 101 to 105% |  |  |
| O=C(Nc1cnccn1)C(CC1CCOCC1)n1ncc2c(S(=O)(=O)C3CC3)cncc21 (centres unmarked) [20 (TFA Salt), 2-(4-(cyclopropylsulfonyl)-1H-pyrazolo[3,4-c]pyridin-1-yl)-N-(pyrazin-2-yl)-3-(tetrahydro-2H-pyran-4-yl)propanamide] | 1.58 to 3.16 µM |  |  | 106-110% |  |
| COc1ccc2nc(NC(=O)C(CC3CCOCC3)n3ccc(S(=O)(=O)C4CC4)n3)sc2n1 (centres unmarked) [Compound 1, 2-(3-(cyclopropylsulfonyl)-1H-pyrazol-1-yl)-N-(5-methoxythiazolo[5,4-b]pyridin-2-yl)-3-(tetrahydro-2H-pyran-4-yl)propanamide] | ≥ 15.8 µM |  | ≤ 90% |  |  |
| COc1ccc2nc(NC(=O)[C@H](CC3CCOCC3)n3ccc(S(=O)(=O)C4CC4)n3)sc2n1 [Compound 2, (S)-2-(3-(cyclopropylsulfonyl)-1H-pyrazol-1-yl)-N-(5-methoxythiazolo[5,4-b]pyridin-2-yl)-3-(tetrahydro-2H-pyran-4-yl)propanamide] | ≥ 15.8 µM | ≤ 90% |  |  |  |
| COc1ccc2nc(NC(=O)[C@@H](CC3CCOCC3)n3ccc(S(=O)(=O)C4CC4)n3)sc2n1 [Compound 3, (R)-2-(3-(cyclopropylsulfonyl)-1H-pyrazol-1-yl)-N-(5-methoxythiazolo[5,4-b]pyridin-2-yl)-3-(tetrahydro-2H-pyran-4-yl)propanamide] | ≥ 15.8 µM | ≤ 90% |  |  |  |
| O=C(Nc1ncc(Cl)s1)C(CC1CCOCC1)n1cc(S(=O)(=O)C2CC2)cn1 (centres unmarked) [Compound 4, N-(5-chlorothiazol-2-yl)-2-(4-(cyclopropylsulfonyl)-1H-pyrazol-1-yl)-3-(tetrahydro-2H-pyran-4-yl)propanamide] | 3.98 to 12.6 µM |  | 101 to 105% |  |  |
| O=C(Nc1ncc(Cl)s1)C(CC1CCOCC1)n1cc(S(=O)(=O)C2CCCC2)cn1 (centres unmarked) [Compound 5, N-(5-chlorothiazol-2-yl)-2-(4-(cyclopentylsulfonyl)-1H-pyrazol-1-yl)-3-(tetrahydro-2H-pyran-4-yl)propanamide] | 0.398 to 1.26 µM |  | ≥ 111% |  |  |
| COC(=O)c1cnc(NC(=O)C(CC2CCCC2)n2cc(S(=O)(=O)C3CC3)cn2)s1 (centres unmarked) [Compound 6, Methyl 2-(3-cyclopentyl-2-(4-(cyclopropylsulfonyl)-1H-pyrazol-1-yl)propanamido)thiazole-5-carboxylate] | 3.98 to 12.6 µM | ≥ 111% |  |  |  |
| O=C(O)c1cnc(NC(=O)C(CC2CCCC2)n2cc(S(=O)(=O)C3CC3)cn2)s1 (centres unmarked) [Compound 7, 2-(3-cyclopentyl-2-(4-(cyclopropylsulfonyl)-1H-pyrazol-1-yl)propanamido)thiazole-5-carboxylic Acid] | 3.98 to 12.6 µM | ≤ 90% |  |  |  |
| O=C(NC1CC1)c1nn(C(CC2CCOCC2)C(=O)Nc2ncc(Cl)s2)cc1Cl (centres unmarked) [Compound 8, 4-chloro-1-(1-(5-chlorothiazol-2-ylamino)-1-oxo-3-(tetrahydro-2H-pyran-4-yl)propan-2-yl)-N-cyclopropyl-1H-pyrazole-3-carboxamide] | 3.98 to 12.6 µM |  | ≤ 90% |  |  |
| O=C(Nc1ncc(Cl)s1)C(CC1CCOCC1)n1cc(NS(=O)(=O)C2CC2)cn1 (centres unmarked) [Compound 9, N-(5-chlorothiazol-2-yl)-2-(4-(cyclopropanesulfonamido)-1H-pyrazol-1-yl)-3-(tetrahydro-2H-pyran-4-yl)propanamide] | 3.98 to 12.6 µM |  | ≤ 90% |  |  |
| O=C1CC[C@H](CC(C(=O)Nc2ncc(Cl)s2)n2ncc3c(S(=O)(=O)C4CC4)cccc32)C1 (stereo partly drawn) [Compound 11, N-(5-chlorothiazol-2-yl)-2-(4-(cyclopropylsulfonyl)-1H-indazol-1-yl)-3-((R)-3-oxocyclopentyl)propanamide] | ≤ 0.316 µM | 101 to 105% |  |  |  |
| Cn1ccc(NC(=O)C(CC2CCOCC2)n2ncc3c(S(=O)(=O)C4CC4)cc(OC(F)F)cc32)n1 (centres unmarked) [Compound 12, 2-(4-(cyclopropylsulfonyl)-6-(difluoromethoxy)-1H-indazol-1-yl)-N-(1-methyl-1H-pyrazol-3-yl)-3-(tetrahydro-2H-pyran-4-yl)propanamide] | 1.58 to 3.16 µM | ≤ 90% |  |  |  |
| O=C(Nc1ncc(F)s1)C(CC1CCOCC1)n1ncc2c(S(=O)(=O)C3CC3)cncc21 (centres unmarked) [Compound 13, 2-(4-(cyclopropylsulfonyl)-1H-pyrazolo[3,4-c]pyridin-1-yl)-N-(5-fluorothiazol-2-yl)-3-(tetrahydro-2H-pyran-4-yl)propanamide] | ≤ 0.316 µM |  | 106 to 110% |  |  |
| NC(=O)c1ccc(NC(=O)C(CC2CCOCC2)n2ncc3c(S(=O)(=O)C4CC4)cccc32)nc1 (centres unmarked) [Compound 14, 6-(2-(4-(cyclopropylsulfonyl)-1H-indazol-1-yl)-3-(tetrahydro-2H-pyran-4-yl)propanamido)nicotinamide] | ≤ 0.316 µM | ≥ 111% |  |  |  |
| Nc1cc(S(=O)(=O)C2CC2)c2cnn(C(CC3CCOCC3)C(=O)Nc3ncc(F)s3)c2n1 (centres unmarked) [Compound 16, 2-(6-amino-4-(cyclopropylsulfonyl)-1H-pyrazolo[3,4-b]pyridin-1-yl)-N-(5-fluorothiazol-2-yl)-3-(tetrahydro-2H-pyran-4-yl)propanamide] | ≤ 0.316 µM |  | 106 to 110% |  |  |
| Cn1ccc(NC(=O)C(CC2CCOCC2)n2ncc3c(S(=O)(=O)C4CC4)cc(C#N)cc32)n1 (centres unmarked) [Compound 19, 2-(6-cyano-4-(cyclopropylsulfonyl)-1H-indazol-1-yl)-N-(1-methyl-1H-pyrazol-3-yl)-3-(tetrahydro-2H-pyran-4-yl) propanamide] | ≤ 0.316 µM | ≤ 90% |  |  |  |
| O=C(Nc1ncc(F)s1)C(CC1CCOCC1)n1ncc2c(S(=O)(=O)C3CC3)c(Cl)ccc21 (centres unmarked) [Compound 22, 2-(5-chloro-4-(cyclopropylsulfonyl)-1H-indazol-1-yl)-N-(5-fluorothiazol-2-yl)-3-(tetrahydro-2H-pyran-4-yl)propanamide] | ≤ 0.316 µM | ≥ 111% |  |  |  |
| O=C(Nc1ncc(F)s1)C(CC1CCOCC1)n1ncc2c(S(=O)(=O)C3CC3)ccc(Cl)c21 (centres unmarked) [Compound 23, 2-(7-chloro-4-(cyclopropylsulfonyl)-1H-indazol-1-yl)-N-(5-flourothiazol-2-yl)-3-(tetrahydro-2H-pyran-4-yl)propanamide] |  |  |  | ≧111% | ≧6.5 |
